Data published in patent US20250243180A1, “TARGETED PROTEIN DEGRADATION” (Monte Rosa Therapeutics AG, priority 2023, published 2025).
Like-named read-outs stand apart in the source and are kept apart here.

What was measured:
[1] = biological target: CRBN-DDB1 (Homo sapiens (Human), UniProt Q96SW2); assay: Compound binding to CRBN by HTRF assay
Description: Compound activity was monitored in a Homogenous Time-Resolved Fluorescence (HTRF) assay using 1-[5-({2-[2-(2-{[2-(2,6-dioxopiperidin-3-yl)-1,3-dioxo-2,3-dihydro-1H-isoindol-4-yl]oxy}acetamido)ethoxy]ethyl}carbamoyl)pentyl]-3,3-dimethyl-2-[(1E,3E)-5-[(2E)-1,3,3-trimethyl-5-sulfo-2,3-dihydro-1H-indol-2-ylidene]penta-1,3-dien-1-yl]-3H-indol-1-ium-5-sulfonate as a fluorescent probe. Biochemical assays were conducted in Greiner white 384 well HiBase plates (Cat. No 784075-25) in 20 μL total volume. A one pot detection solution of CRBN-DDB1 (2.5 nM), Anti-His Terbium Cryptate Gold (1×, PerkinElmer Cat. #: 61HI2TLB), and Cy5-Thalidomide (100 nM, Tenova Cat.: T52461) was prepared in 20 mM HEPES, 20 mM NaCl, 0.2 mM TCEP, 0.2 mM EDTA, and 0.005% Tween20 was dispensed to each assay plate. Compounds were stored in dry, ambient temperatures at 10 mM. An 11-point, 1:3 dilution series was prepared from 10 mM stock concentrations in Echo-compatible LDV plates. 10 nL of each compound dilution series was dispensed into assays wells using an Echo 650 (Labcyte Inc. USA). 20 nL of 10 mM Lenalidomide was transferred into the active-control wells for the assay and 20 nL of DMSO was transferred into the neutral-control wells. The assay was then allowed to incubate for 30 min at ambient temperature after transferring compound. Plate measurements were taken on a Pherastar FSX (BMG Labtech, Germany) using the HTRF Red filter (Ex. 337 nm, em1: 620 nm, em2: 665 nm) (Flashes: 50, Integration time: 60-400 us, Z-height: 10 mm, Ratio-multiplier: 10,000). The HTRF signal was then subsequently normalized to the neutral and active controls. Analysis and EC50 values were derived using KNIME analytics (KNIME Zurich) transformation and fitting within Collaborative Drug Discovery (Collaborative Drug Discovery USA). Ki was derived from the geometric mean of the EC50 values using the Cheng-Prustoff transformation.

[2] = biological target: NEK7 (Homo sapiens (Human), UniProt Q8TDX7+Q96SW2); assay: NEK7 NanoBiT degradation assay in Cal51 NEK7 NanoBiT cell line; assay type: cell-based; details: Cal51 NEK7 NanoBiT cells, 24 hours; for Dmax: CAL-51
Sequence of NEK7 (Q8TDX7 whole entry): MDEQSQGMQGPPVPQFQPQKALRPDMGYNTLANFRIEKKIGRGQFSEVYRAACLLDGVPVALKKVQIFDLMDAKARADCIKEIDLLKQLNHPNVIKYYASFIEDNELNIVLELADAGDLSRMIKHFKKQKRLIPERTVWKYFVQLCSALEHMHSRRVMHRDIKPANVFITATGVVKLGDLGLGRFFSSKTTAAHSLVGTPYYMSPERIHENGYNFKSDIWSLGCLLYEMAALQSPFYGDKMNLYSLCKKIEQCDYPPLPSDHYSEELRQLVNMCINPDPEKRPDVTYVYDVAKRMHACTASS
Sequence of NEK7 (Q96SW2 whole entry): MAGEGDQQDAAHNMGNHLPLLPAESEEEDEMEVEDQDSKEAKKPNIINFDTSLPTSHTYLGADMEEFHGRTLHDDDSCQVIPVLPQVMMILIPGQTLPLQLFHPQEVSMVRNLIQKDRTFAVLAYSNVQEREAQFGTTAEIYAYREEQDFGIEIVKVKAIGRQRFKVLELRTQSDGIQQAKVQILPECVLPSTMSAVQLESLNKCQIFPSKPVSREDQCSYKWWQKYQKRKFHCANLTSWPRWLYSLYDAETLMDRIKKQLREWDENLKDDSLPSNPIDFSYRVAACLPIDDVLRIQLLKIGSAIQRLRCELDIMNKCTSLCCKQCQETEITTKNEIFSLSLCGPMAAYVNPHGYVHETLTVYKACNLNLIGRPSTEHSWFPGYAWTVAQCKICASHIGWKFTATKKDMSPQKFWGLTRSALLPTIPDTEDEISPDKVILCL
Sequence of NEK7 (Q16531 2-1140 partner): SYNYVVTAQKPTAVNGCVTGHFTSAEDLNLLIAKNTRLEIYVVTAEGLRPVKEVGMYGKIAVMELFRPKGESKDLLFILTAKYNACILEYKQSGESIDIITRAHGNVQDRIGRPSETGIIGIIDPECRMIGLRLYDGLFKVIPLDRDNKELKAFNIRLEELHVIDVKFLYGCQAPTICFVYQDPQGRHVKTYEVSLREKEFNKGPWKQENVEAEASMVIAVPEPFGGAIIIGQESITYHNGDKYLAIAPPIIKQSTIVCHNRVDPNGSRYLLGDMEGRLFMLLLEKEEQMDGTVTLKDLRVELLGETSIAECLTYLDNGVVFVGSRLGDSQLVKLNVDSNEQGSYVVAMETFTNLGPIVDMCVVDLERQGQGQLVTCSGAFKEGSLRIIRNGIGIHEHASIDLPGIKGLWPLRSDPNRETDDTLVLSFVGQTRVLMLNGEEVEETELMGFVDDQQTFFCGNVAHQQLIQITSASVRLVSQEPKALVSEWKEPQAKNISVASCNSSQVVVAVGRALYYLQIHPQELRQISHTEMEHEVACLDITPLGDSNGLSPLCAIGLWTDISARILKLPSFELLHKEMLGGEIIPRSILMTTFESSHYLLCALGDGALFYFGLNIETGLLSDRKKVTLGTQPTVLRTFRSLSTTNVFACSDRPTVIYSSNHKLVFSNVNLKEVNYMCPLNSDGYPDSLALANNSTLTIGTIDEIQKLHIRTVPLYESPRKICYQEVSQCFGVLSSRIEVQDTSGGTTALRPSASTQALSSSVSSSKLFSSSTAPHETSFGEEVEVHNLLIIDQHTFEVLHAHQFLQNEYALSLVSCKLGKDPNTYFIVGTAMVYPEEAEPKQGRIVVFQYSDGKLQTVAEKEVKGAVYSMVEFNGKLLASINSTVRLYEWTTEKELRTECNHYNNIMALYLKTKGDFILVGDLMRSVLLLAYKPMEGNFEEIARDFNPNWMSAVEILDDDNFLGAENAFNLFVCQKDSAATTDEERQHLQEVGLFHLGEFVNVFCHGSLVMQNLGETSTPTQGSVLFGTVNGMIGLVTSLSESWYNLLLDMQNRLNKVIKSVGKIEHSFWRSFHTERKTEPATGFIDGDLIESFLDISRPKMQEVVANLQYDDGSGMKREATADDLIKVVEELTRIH
Description: Cal51 NEK7 NanoBiT cell line was generated via CRISPR Knock-In of the HiBiT tag in NEK7 gene and stable infection with a lentivirus carrying LgBiT protein. The cell line was generated in house. For the experiment, cells were plated in 384-well white flat bottom plates (Corning, 3570BC) at 2500 cells per well using Multiflo (BioTek/Agilent) and in 25 μl volume in DMEM experimental medium: DMEM (DMEM, high glucose, HEPES, no phenol red (ThermoFisher Scientific, 21063029) supplemented with 10% FBS (Corning, 35-075-CV), 1% Penicillin/Streptomycin ((ThermoFisher Scientific, 15140-122), and 1% Endurazine (Nano-Glo Endurazine Live Cell Substrate (Promega, N2571)). Cells were incubated for 16 hours at 37° C., 5% CO2 before compound addition. For dose response determination, 2.5 nL of a compound at different concentrations (stock compound concentration range: 10 mM to 0.5 μM, final concentration range inside cell plate: 1 μM to 0.05 nM) were dispensed into the plate using an Echo® 650 liquid handling device (Backman Coulter/Labcyte). Cells were incubated at 37° C., 5% CO2 for 24 hours and then signal was read on a Pherastar FSX using “LUM plus” optic module with 4095 gain and measurement interval time 0.2 seconds.
Analysis was performed in Genedata Screener (Genedata, Basel, CH). Luminescence response (R) was calculated by the formula: response=100*(S−N)/(P−N) where S is the signal of the well, N and P the mean negative and positive control values respectively of the same plate. The luminescence response was then fitted in Genedata using a 4-parameter antagonist logistic fit (hill slope unconstrained, EC50>0, top/bottom unconstrained).

[3] = NEK7 degradation, read-out: NanoBiT Dmax
[4] = NEK7 degradation, read-out: NanoBiT DC50

Sequence of CRBN-DDB1 (Q96SW2 whole entry): as the sequence (Q96SW2 whole entry) above
Sequence of CRBN-DDB1 (Q16531 whole entry partner): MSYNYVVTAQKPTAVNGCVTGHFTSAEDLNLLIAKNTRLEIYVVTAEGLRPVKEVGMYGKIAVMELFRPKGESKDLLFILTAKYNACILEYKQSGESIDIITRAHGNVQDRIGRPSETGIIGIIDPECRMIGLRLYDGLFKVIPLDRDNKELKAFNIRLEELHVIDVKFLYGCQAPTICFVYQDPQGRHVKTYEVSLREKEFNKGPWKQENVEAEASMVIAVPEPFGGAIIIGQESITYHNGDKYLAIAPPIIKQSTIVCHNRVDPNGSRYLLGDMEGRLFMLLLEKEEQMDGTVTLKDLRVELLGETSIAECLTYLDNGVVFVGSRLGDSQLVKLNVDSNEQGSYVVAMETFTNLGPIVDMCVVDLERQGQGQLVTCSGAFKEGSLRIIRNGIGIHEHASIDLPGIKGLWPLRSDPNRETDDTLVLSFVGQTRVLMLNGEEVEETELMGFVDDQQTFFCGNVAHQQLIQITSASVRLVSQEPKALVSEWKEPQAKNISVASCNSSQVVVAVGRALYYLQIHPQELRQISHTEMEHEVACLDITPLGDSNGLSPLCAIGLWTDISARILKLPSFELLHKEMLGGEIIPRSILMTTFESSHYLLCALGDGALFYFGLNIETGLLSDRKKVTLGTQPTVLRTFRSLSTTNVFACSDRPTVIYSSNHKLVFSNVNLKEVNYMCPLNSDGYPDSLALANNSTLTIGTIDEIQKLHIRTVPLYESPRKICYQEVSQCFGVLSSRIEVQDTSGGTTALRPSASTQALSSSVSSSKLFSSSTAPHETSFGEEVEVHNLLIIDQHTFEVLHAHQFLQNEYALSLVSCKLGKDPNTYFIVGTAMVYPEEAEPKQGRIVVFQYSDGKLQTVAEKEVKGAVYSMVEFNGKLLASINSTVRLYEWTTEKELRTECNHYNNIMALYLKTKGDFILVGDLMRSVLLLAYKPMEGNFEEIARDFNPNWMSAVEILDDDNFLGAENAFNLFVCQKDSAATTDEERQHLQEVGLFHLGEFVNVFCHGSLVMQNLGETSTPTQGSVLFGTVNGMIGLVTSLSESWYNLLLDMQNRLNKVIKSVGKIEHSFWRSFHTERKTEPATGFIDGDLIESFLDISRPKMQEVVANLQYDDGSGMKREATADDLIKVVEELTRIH

CC(C)(C(=O)NCc1ccc(C2CCC(=O)NC2=O)c(Cl)c1)c1cccc(C#N)c1 (stereo not drawn) [Compound 18]
EC50 [1]: 0.54 µM
EC50 ([1]; HTRF class, Cereblon binding): 0.1 to 1 µM
Dmax ([2]; read-out: NEK7 NanoBiT Dmax): 61%
Dmax [2, 3]: 50 to 75%
DC50 ([2]; read-out: NEK7 NanoBiT DC50): 0.206 µM
DC50 [2, 4]: 0.1 to 1 µM

CC(C)(C(=O)NCc1cc(Cl)c(C2CCC(=O)NC2=O)c(Cl)c1)c1ccncn1 (stereo not drawn) [Compound 19, N-(3,5-dichloro-4-(2,6-dioxopiperidin-3-yl)benzyl)-2-methyl-2-(pyrimidin-4-yl)propanamide]
EC50 [1]: 0.14 µM
EC50 ([1]; HTRF class, Cereblon binding): 0.1 to 1 µM
Dmax ([2]; read-out: NEK7 NanoBiT Dmax): 84%
Dmax [2, 3]: > 75%
DC50 ([2]; read-out: NEK7 NanoBiT DC50): 0.023 µM
DC50 [2, 4]: ≤ 0.1 µM

CC(C)(C(=O)NCc1cc(Cl)c(C2CCC(=O)NC2=O)c(Cl)c1)c1ccccn1 (stereo not drawn) [Compound 20]
EC50 [1]: 0.07 µM
EC50 ([1]; HTRF class, Cereblon binding): ≤ 0.1 µM
Dmax ([2]; read-out: NEK7 NanoBiT Dmax): 86%
Dmax [2, 3]: > 75%
DC50 ([2]; read-out: NEK7 NanoBiT DC50): 0.013 µM
DC50 [2, 4]: ≤ 0.1 µM

CC(C)(C(=O)NCc1cc(Cl)c(C2CCC(=O)NC2=O)c(Cl)c1)c1cccc(C#N)c1 (stereo not drawn) [Compound 21, 2-(3-cyanophenyl)-N-(3,5-dichloro-4-(2,6-dioxopiperidin-3-yl)benzyl)-2-methylpropanamide]
EC50 [1]: 0.09 µM
EC50 ([1]; HTRF class, Cereblon binding): ≤ 0.1 µM
Dmax ([2]; read-out: NEK7 NanoBiT Dmax): 94%
Dmax [2, 3]: > 75%
DC50 ([2]; read-out: NEK7 NanoBiT DC50): 0.003 µM
DC50 [2, 4]: ≤ 0.1 µM

CC(C)(C(=O)NCc1cc(Cl)c(C2CCC(=O)NC2=O)c(Cl)c1)c1ccc(F)cn1 (stereo not drawn) [Compound 22]
EC50 [1]: 0.12 µM
EC50 ([1]; HTRF class, Cereblon binding): 0.1 to 1 µM
Dmax ([2]; read-out: NEK7 NanoBiT Dmax): 93%
Dmax [2, 3]: > 75%
DC50 ([2]; read-out: NEK7 NanoBiT DC50): 0.004 µM
DC50 [2, 4]: ≤ 0.1 µM

CC(C)(C(=O)NCc1cc(Cl)c(C2CCC(=O)NC2=O)c(Cl)c1)c1ccn(CC(F)(F)F)c(=O)c1 (stereo not drawn) [Compound 23]
EC50 [1]: 0.22 µM
EC50 ([1]; HTRF class, Cereblon binding): 0.1 to 1 µM
Dmax ([2]; read-out: NEK7 NanoBiT Dmax): 88%
Dmax [2, 3]: > 75%
DC50 ([2]; read-out: NEK7 NanoBiT DC50): 0.022 µM
DC50 [2, 4]: ≤ 0.1 µM

CC(C)(C(=O)NCc1ccc(C2CCC(=O)NC2=O)c(Cl)c1)c1ccccc1F (stereo not drawn) [Compound 24]
EC50 [1]: 0.32 µM
EC50 ([1]; HTRF class, Cereblon binding): 0.1 to 1 µM
Dmax ([2]; read-out: NEK7 NanoBiT Dmax): 74%
Dmax [2, 3]: 50 to 75%
DC50 ([2]; read-out: NEK7 NanoBiT DC50): 0.076 µM
DC50 [2, 4]: ≤ 0.1 µM

CC(C)(C(=O)NCc1ccc(C2CCC(=O)NC2=O)c(Cl)c1)c1cccc(F)c1 (stereo not drawn) [Compound 25, N-(3-chloro-4-(2,6-dioxopiperidin-3-yl)benzyl)-2-(3-fluorophenyl)-2-methylpropanamide]
EC50 [1]: 0.29 µM
EC50 ([1]; HTRF class, Cereblon binding): 0.1 to 1 µM
Dmax ([2]; read-out: NEK7 NanoBiT Dmax): 87%
Dmax [2, 3]: > 75%
DC50 ([2]; read-out: NEK7 NanoBiT DC50): 0.023 µM
DC50 [2, 4]: ≤ 0.1 µM

CC(C)(C(=O)NCc1cc(Cl)c(C2CCC(=O)NC2=O)c(Cl)c1)c1ccccc1F (stereo not drawn) [Compound 26]
EC50 [1]: 0.07 µM
EC50 ([1]; HTRF class, Cereblon binding): ≤ 0.1 µM
Dmax ([2]; read-out: NEK7 NanoBiT Dmax): 96%
Dmax [2, 3]: > 75%
DC50 ([2]; read-out: NEK7 NanoBiT DC50): 0.002 µM
DC50 [2, 4]: ≤ 0.1 µM

CC(C)(C(=O)NCc1cc(Cl)c(C2CCC(=O)NC2=O)c(Cl)c1)c1cccc(F)c1 (stereo not drawn) [Compound 27]
EC50 [1]: 0.05 µM
EC50 ([1]; HTRF class, Cereblon binding): ≤ 0.1 µM
Dmax ([2]; read-out: NEK7 NanoBiT Dmax): 96%
Dmax [2, 3]: > 75%
DC50 ([2]; read-out: NEK7 NanoBiT DC50): 0.001 µM
DC50 [2, 4]: ≤ 0.1 µM

CC(C)(C(=O)NCc1ccc(C2CCC(=O)NC2=O)c(Cl)c1)c1ccc(C#N)cc1 (stereo not drawn) [Compound 28]
EC50 [1]: 0.47 µM
EC50 ([1]; HTRF class, Cereblon binding): 0.1 to 1 µM
Dmax ([2]; read-out: NEK7 NanoBiT Dmax): 91%
Dmax [2, 3]: > 75%
DC50 ([2]; read-out: NEK7 NanoBiT DC50): 0.017 µM
DC50 [2, 4]: ≤ 0.1 µM

CC(C)(C(=O)NCc1cc(Cl)c(C2CCC(=O)NC2=O)c(Cl)c1)c1ccc(C#N)cc1 (stereo not drawn) [Compound 29]
EC50 [1]: 0.08 µM
EC50 ([1]; HTRF class, Cereblon binding): ≤ 0.1 µM
Dmax ([2]; read-out: NEK7 NanoBiT Dmax): 97%
Dmax [2, 3]: > 75%
DC50 ([2]; read-out: NEK7 NanoBiT DC50): 0.0004 µM
DC50 [2, 4]: ≤ 0.1 µM

CC(C)(C(=O)NCc1ccc(C2CCC(=O)NC2=O)c(Cl)c1)c1ccc(F)cc1 (stereo not drawn) [Compound 30]
EC50 [1]: 0.35 µM
EC50 ([1]; HTRF class, Cereblon binding): 0.1 to 1 µM
Dmax ([2]; read-out: NEK7 NanoBiT Dmax): 92%
Dmax [2, 3]: > 75%
DC50 ([2]; read-out: NEK7 NanoBiT DC50): 0.012 µM
DC50 [2, 4]: ≤ 0.1 µM

CC(C)(C(=O)NCc1cc(F)c(C2CCC(=O)NC2=O)c(Cl)c1)c1ccccc1 (stereo not drawn) [Compound 31]
EC50 [1]: 0.13 µM
EC50 ([1]; HTRF class, Cereblon binding): 0.1 to 1 µM
Dmax ([2]; read-out: NEK7 NanoBiT Dmax): 93%
Dmax [2, 3]: > 75%
DC50 ([2]; read-out: NEK7 NanoBiT DC50): 0.006 µM
DC50 [2, 4]: ≤ 0.1 µM

CC(C)(C(=O)NCc1cc(Cl)c(C2CCC(=O)NC2=O)c(Cl)c1)c1ccc2c(c1)S(=O)(=O)NC2 (stereo not drawn) [Compound 32, N-(3,5-dichloro-4-(2,6-dioxopiperidin-3-yl)benzyl)-2-(1,1-dioxido-2,3-dihydrobenzo[d]isothiazol-6-yl)-2-methylpropanamide]
EC50 [1]: 0.11 µM
EC50 ([1]; HTRF class, Cereblon binding): 0.1 to 1 µM
Dmax ([2]; read-out: NEK7 NanoBiT Dmax): 95%
Dmax [2, 3]: > 75%
DC50 ([2]; read-out: NEK7 NanoBiT DC50): 0.004 µM
DC50 [2, 4]: ≤ 0.1 µM

CC(C)(C(=O)NCc1cc(Cl)c(C2CCC(=O)NC2=O)c(Cl)c1)c1ccc2ncncc2c1 (stereo not drawn) [Compound 33]
EC50 [1]: 0.12 µM
EC50 ([1]; HTRF class, Cereblon binding): 0.1 to 1 µM
Dmax ([2]; read-out: NEK7 NanoBiT Dmax): 96%
Dmax [2, 3]: > 75%
DC50 ([2]; read-out: NEK7 NanoBiT DC50): 0.002 µM
DC50 [2, 4]: ≤ 0.1 µM

CC(C)(C(=O)NCc1cc(Cl)c(C2CCC(=O)NC2=O)c(Cl)c1)c1ccc2cnncc2c1 (stereo not drawn) [Compound 35, N-(3,5-dichloro-4-(2,6-dioxopiperidin-3-yl)benzyl)-2-methyl-2-(phthalazin-6-yl)propanamide]
EC50 [1]: 0.13 µM
EC50 ([1]; HTRF class, Cereblon binding): 0.1 to 1 µM
Dmax ([2]; read-out: NEK7 NanoBiT Dmax): 77%
Dmax [2, 3]: > 75%
DC50 ([2]; read-out: NEK7 NanoBiT DC50): 0.019 µM
DC50 [2, 4]: ≤ 0.1 µM

CC(C)(C(=O)NCc1cc(Cl)c(C2CCC(=O)NC2=O)c(Cl)c1)c1cc(F)c(S(N)(=O)=O)c(F)c1 (stereo not drawn) [Compound 36, N-(3,5-dichloro-4-(2,6-dioxopiperidin-3-yl)benzyl)-2-(3,5-difluoro-4-sulfamoylphenyl)-2-methylpropanamide]
EC50 [1]: 0.08 µM
EC50 ([1]; HTRF class, Cereblon binding): ≤ 0.1 µM
Dmax ([2]; read-out: NEK7 NanoBiT Dmax): 95%
Dmax [2, 3]: > 75%
DC50 ([2]; read-out: NEK7 NanoBiT DC50): 0.005 µM
DC50 [2, 4]: ≤ 0.1 µM
